Common to all, as to assay: NCI tumour cell line growth inhibition, 48 h
The subject of experiment [1] is NCI-H226 lung.
Experiment [2] concerns DLD-1 colon.
For experiment [3], the system named is MOLT-4 leukemia.
Experiment [4] has as its system UO-31 renal.
Experiment [5] has as its system CAKI-1 renal.
The test system of experiment [6] is OVCAR-5 ovarian.
Experiment [7] has as its system SF-268 CNS.
The subject of experiment [8] is KM20L2 colon.
Experiment [9] concerns HOP-92 NSCLC.
The test system of experiment [10] is NCI/ADR-RES ovarian.
In experiment [11] the test system is SR leukemia.
Experiment [12] concerns MDA-MB-435.

Molecules are shown by their SMILES.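 Cultured in 96-well plates, cells were exposed to test compound for 48 hours across five concentrations. Here, GI50 denotes the concentration required for 50% inhibition of growth. TGI is the concentration that stops growth completely.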 Bounds are passed on as bounds.

With `NC(=O)CCC(NCc1c2ccccc2[n+]([O-])c2ccccc12)C(=O)O` (stereo not given), the TGI in experiment [1], in experiment [2], in experiment [3], in experiment [4], in experiment [5] and in [6] was > 100 µM in each case. In addition, the TGI in experiment [7] and in experiment [8] was > 100 µM throughout.
As for `Cc1c(-c2cc3n(n2)C(c2cccs2)C(C#N)=C(c2ccccc2)N3)c(=O)n(-c2ccccc2)n1C` (stereo not given), the TGI in experiment [1], in [2], in [9], in experiment [3], in experiment [10] and in [4] was > 100 µM throughout. Moreover, the TGI is 84.2 µM in experiment [5], > 100 µM in experiment [6], > 100 µM in experiment [7] and > 31.6 µM in experiment [8].
Regarding `CC(=O)[O-].CC(=O)[O-].O=C(N/N=C/c1cc(Cl)cc(Cl)c1[OH2+])c1ccncc1.[Co+2]`, the TGI in [1] is > 100 µM; in experiment [9], 95.9 µM; in experiment [3] it was > 100 µM; in [4] it was > 100 µM; in experiment [11], > 100 µM; in [6], > 100 µM. In addition, the TGI in experiment [7] and in [8] was > 100 µM each time. For the same compound, the GI50 in experiment [9] was 23.6 µM.
Consider `CC(=O)c1ccc(Oc2ccc(/C(C)=N\N=C(N)N)cc2)cc1`, for which the TGI in experiment [2] was 14.3 µM; in experiment [9], 13.8 µM; in [3] it was 12.2 µM; in [6], 17.4 µM; in experiment [7], 16.1 µM; in [8], 3.43 µM.
For `C=C1c2c(cc3c(c2O)c(=O)c2ccccc2n3C)OC1(C)C`, the TGI was > 100 µM in experiment [1]; > 100 µM in experiment [2]; 65.9 µM in experiment [9]; > 100 µM in [3]; > 100 µM in experiment [4]; > 100 µM in experiment [5]. Further, the TGI in experiment [7] and in experiment [8] was > 100 µM each time.
Take `O=P(O)(O)C(CSc1ccccc1)P(=O)(O)O`: the TGI in experiment [1], in experiment [2], in experiment [9], in experiment [3], in [10] and in [4] was > 100 µM in each case. For the same compound, the TGI in experiment [5], in experiment [6], in experiment [7] and in [8] was > 100 µM each time.
As to `O=C(NO)c1coc2ccccc2c1=O`, the TGI in experiment [2] was > 100 µM; in [3] it was > 100 µM; in experiment [4], > 100 µM; in experiment [5] it was 68.5 µM; in [6] it was > 100 µM; in [7] it was > 100 µM. In experiment [8], the TGI was > 100 µM.
Regarding `CC(C)CCC1(O)O[C@H]2C[C@H]3[C@@H]4CCC5CC(=O)C=C[C@]5(C)[C@H]4CC[C@]3(C)[C@H]2[C@@H]1C` (stereo not given in full), the TGI was 14.8 µM in experiment [1]; 16 µM in experiment [9]; 24.5 µM in experiment [12]; 7.15 µM in [3]; 33.1 µM in experiment [10]; 30.3 µM in [4]. Besides, the TGI in experiment [11] came out at 22.6 µM; in [5], 28.1 µM; in experiment [6], 26.2 µM; in [7], 28.2 µM.
With `O=C(CSc1nc(=O)[nH]c2nc[nH]c12)Nc1ccccc1`, the TGI in [1], in experiment [9], in [12], in experiment [3], in experiment [10] and in experiment [4] was > 100 µM throughout. The TGI in experiment [11], in experiment [5], in experiment [6] and in [7] was > 100 µM in each case.
With `Cc1ccc(C(=O)C(C)N)cc1` (stereo not given), the TGI in experiment [1], in [2], in experiment [9], in experiment [3], in experiment [4] and in experiment [11] was > 100 µM throughout. Further, the TGI in [5], in [6], in experiment [7] and in [8] was > 100 µM in each case.
With `CC1(c2ccc(Cl)cc2)CC(c2ccc(Cl)cc2)=C(C#N)C(=C(C#N)C#N)N1` (stereo not given), the TGI in [1] came to 75.8 µM; in experiment [9], 11 µM; in [12], 34.7 µM; in experiment [3], 60.3 µM; in experiment [10], 46.5 µM; in experiment [4] it was 30.7 µM. In addition, the TGI in [11] is > 100 µM; in [5], 32.5 µM; in [6], 61.9 µM; in [7] it was 22.6 µM.
Regarding `O=C1C2C=CC1C1C(=O)OC(=O)C21` (stereo not given), the TGI in experiment [1], in experiment [9], in [12], in [3], in [10] and in experiment [4] was > 100 µM throughout. Besides, the TGI in experiment [11], in [5], in experiment [6] and in experiment [7] was > 100 µM in each case.
For `CC(C)(C)c1ccc(CN2CCN(C(c3ccccc3)c3ccc(Cl)cc3)CC2)cc1` (stereo not given), the TGI in experiment [1] was 62.2 µM; in experiment [9] it was > 100 µM; in experiment [12], > 100 µM; in [3], > 100 µM; in experiment [10], > 100 µM; in [4] it was > 100 µM. Moreover, the TGI in experiment [11], in experiment [5], in experiment [6] and in experiment [7] was > 100 µM throughout.
Take `O=C1OC(c2ccc(O)c(Cl)c2)(c2ccc(O)c(Cl)c2)c2ccc(Br)c3cccc1c23` (tested in a mixture with another compound): the TGI in experiment [1] turned out to be 41.1 µM; in experiment [9], 26.1 µM; in [12] it was 34.3 µM; in experiment [3], 41.8 µM; in experiment [10], 32.5 µM; in experiment [4] it was 33.4 µM. For the same compound, the TGI in experiment [11] is 45.4 µM; in [5] it was 29.2 µM; in experiment [6], 34.5 µM; in experiment [7], 31.3 µM.
Regarding `CCC1CC2CN3CCc4c([nH]c5c(-c6c(OC)ccc7c8c([nH]c67)[C@]6(C(=O)OC)CC7CC(CC)C6N(CC8)C7)c(O)ccc45)[C@](C(=O)OC)(C2)C13` (stereo not given in full), the TGI came out at 22 µM in experiment [1]; 26.6 µM in [9]; 23.6 µM in experiment [12]; 16.7 µM in [3]; 53.9 µM in experiment [10]; 27.1 µM in [4]. The TGI in experiment [11] was determined as 45.4 µM; in experiment [5], 25.2 µM; in [6], 33.2 µM; in experiment [7], 32.9 µM.
Turning to `CC(C)(C)[Si](C)(C)OCCCC#CCO`, the TGI in experiment [2], in experiment [3], in [4], in experiment [5], in experiment [6] and in experiment [7] was > 100 µM throughout. Also, the TGI in experiment [8] was > 100 µM.

The values are drawn from PubChem BioAssay (NCI).
